Measured values: patent US20260356835A1, “BICYCLIC HETEROARYL COMPOUNDS” (QuantX Biosciences US, Inc., priority 2023, published 2026)

Experiments:
[1] = target: T1, N-his8-TEV-hPARG (389-976) (Homo sapiens, UniProt Q86W56); assay: PARG Biochemical Enzymatic Assay (PARG inhibition HTRF assay); settings: 62.5 pM PARG, 5 nM Biotin-Parylated PARP1 substrate, 60 minutes preincubation, 10 minutes reaction at 23 °C
T1 construct: N-his8-TEV-hPARG (389-976); His8 (N); TEV protease cleavage site (N); made in house; host or cells: E. coli BL21(DE3)
T1 sequence (Q86W56 389-976): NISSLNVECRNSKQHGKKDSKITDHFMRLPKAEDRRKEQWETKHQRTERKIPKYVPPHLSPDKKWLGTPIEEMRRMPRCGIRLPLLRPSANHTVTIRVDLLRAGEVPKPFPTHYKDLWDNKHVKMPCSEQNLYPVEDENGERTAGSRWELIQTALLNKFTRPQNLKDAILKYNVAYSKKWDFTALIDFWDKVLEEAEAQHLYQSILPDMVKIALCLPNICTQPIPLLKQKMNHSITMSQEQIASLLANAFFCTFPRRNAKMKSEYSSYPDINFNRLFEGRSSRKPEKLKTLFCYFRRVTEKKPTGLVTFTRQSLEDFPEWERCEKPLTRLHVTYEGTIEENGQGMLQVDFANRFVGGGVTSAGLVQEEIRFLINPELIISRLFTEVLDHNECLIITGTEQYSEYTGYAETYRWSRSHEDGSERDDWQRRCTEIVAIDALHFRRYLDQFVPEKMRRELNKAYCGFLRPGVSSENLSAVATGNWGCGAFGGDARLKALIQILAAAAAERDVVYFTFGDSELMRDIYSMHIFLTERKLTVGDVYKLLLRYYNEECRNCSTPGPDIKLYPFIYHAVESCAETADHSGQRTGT
Description: PARG Biochemical Enzymatic Assay
TEV-His8-PolyADP-Ribose Polymerase 1 (379-1014) (PARP1) and N-his8-TEV-hPARG (389-976) were used to transform BL21(DE3) competent cells followed by growth for 1 hour at 37 °C and plating on Kanamycin resistant agar plates. A single colony was then inoculated into 1 ml of Luria Broth and expansion into a 1 liter scale for growth at 37 °C for 3 hours. Expression was induced via 0.2 mM IPTG induction for 20 hours at 16 °C in BL21(DE3) E. coli. Purification was then performed using a Nickel column, size exclusion chromatography and HPLC analysis.
For substrate preparation, […] nicked DNA and 2 μM PARP1 protein were mixed for 10 minutes at 25 °C 10 μM biotin-NAD+ and 100 μM NAD+ were then added and incubated for 60 minutes at 30 °C to yield PARylated PARP1 substrate.
For compound screening, compounds were serially diluted to a 3× final concentration in assay buffer (Tris pH7.5 50 mM, KCl 50 mM, Tween-20 0.01%, BSA 0.1 mg/ml, EDTA 3 mM, EGTA 0.4 mM, DTT 1 mM) containing 1% DMSO. A top concentration of 1.5 μM for a 10-point dose response curve using a 1:3 dilution curve was used. 2.5×PARG (156.25 pM working concentration, 62.5 pM final concentration) was prepared in assay buffer and 4 ul added to a 384 well assay plate containing 2 μl of serially diluted compound. The plate was then centrifuged for 10 seconds and incubated for 60 minutes at 23 °C. 4 μl of 2.5× Biotin-Parylated PARP1 (12.5 nM working concentration, 5 nM final concentration) was then added to the plate and incubated for 10 minutes at 23 °C. 4 μl of […] Detection reagent containing 0.44 μg/ml of Streptavidin-Europium cryptate and 4 μg/ml of anti-6His-XL665 monoclonal antibody was added to the plate and incubated for 60 minutes at 23 °C. The Homogeneous Time Resolved Fluorescent (HTRF) signal was then measured on an Envision plate reader using and excitation wavelength of 337 nm and emission wavelengths of 615 nm and 665 nm. Normalized percent inhibition was then calculated using the following equation: % Inhibition normalized=(compound signal-min signal)/(max signal-min signal)*100%, where Maximum signal was substrate only wells and Minimum signal was enzyme and substrate well. IC50 was calculated by fitting % Inhibition values and log of compound concentrations to nonlinear regression (log(inhibitor) vs. response—Variable slope(four parameters)) with GraphPad 9.4.1
For biochemical activity, bracket is denoted as: A<100 nM; 100 nM<B<500 nM; C>500 nM

Kuramochi cells = assay: Cellular Viability Assay (5 day Kuramochi cell viability, CellTiter-Glo); format: cell-based; settings: 5 days, 37 °C, growth inhibition relative to Day 0 (T0) and DMSO
Description: Kuramochi cells were seeded at a density of 1000 cells per well in a 384-well, white, sterile, clear bottom plate, using a Multidrop liquid dispenser and incubated for 24 hours at 37 °C in a 5% CO2 humidified environment. 24 hours later, compounds were added starting at a top dose of 10 μM for a 9-point dose response curve at a 1:3 dilution using an iDOT HT liquid handler and incubated for 5 days at 37 °C in a 5% CO2 humidified environment. After 5 days and at Day 0, plates were incubated at room temperature for 30 minutes followed by the addition of 30 μl of CellTiter-Glo Reagent. Plates were then mixed for 10 minutes on an orbital shaker followed by incubation at room temperature for 20 minutes. Luminescence was then read using the Envision plate reader. Percent Growth Inhibition was then calculated using the following equation: Percent Growth Inhibition normalized=100−(compound signal−T0)/(max signal−T0)*100%, where Max Signal refers to the DMSO only treated cells and T0 refers to the Day0 viability measurement. Growth Inhibition 50 was then calculated using the following equation: Y=Bottom+(Top−Bottom)/(1+10^((Log IC50−X)*hillslope)).
For cell activity, bracket is denoted as: A<1 uM; 1 uM<B<5 uM; C>5 uM.

| SMILES | IC50 [1] | IC50 (Kuramochi cells) |
| --- | --- | --- |
| N#CC1(NS(=O)(=O)c2cc(N3CCC4(CC3)COC4)n3ncc(-c4nnc(C(F)F)s4)c3c2)CC1 [Example 2, N-(1-cyanocyclopropyl)-3-(5-(difluoromethyl)-1,3,4-thiadiazol-2-yl)-7-(2-oxa-7-azaspiro[3.5]nonan-7-yl)pyrazolo[1,5-a]pyridine-5-sulfonamide] | < 100 nM | < 1000 nM |
| C#CC1(NS(=O)(=O)c2cc(N3CCC4(CC3)COC4)n3ncc(-c4nnc(C(F)F)s4)c3c2)CC1 [Example 4, 3-(5-(difluoromethyl)-1,3,4-thiadiazol-2-yl)-N-(1-ethynylcyclopropyl)-7-(2-oxa-7-azaspiro[3.5]nonan-7-yl)pyrazolo[1,5-a]pyridine-5-sulfonamide] | < 100 nM | < 1000 nM |
| N#CC1(NS(=O)(=O)c2cc(C3=CCN(C(=O)C4CC4)CC3)n3ncc(-c4nnc(C(F)F)s4)c3c2)CC1 [Example 6, N-(1-cyanocyclopropyl)-7-(1-(cyclopropanecarbonyl)-1,2,3,6-tetrahydropyridin-4-yl)-3-(5-(difluoromethyl)-1,3,4-thiadiazol-2-yl)pyrazolo[1,5-a]pyridine-5-sulfonamide] | < 100 nM | < 1000 nM |
| CC1(NS(=O)(=O)c2cc(N3CCC4(CC3)COC4)n3ncc(-c4nnc(C5(C#N)CC5)s4)c3c2)CC1 [Example 8, 3-(5-(1-cyanocyclopropyl)-1,3,4-thiadiazol-2-yl)-N-(1-methylcyclopropyl)-7-(2-oxa-7-azaspiro[3.5]nonan-7-yl)pyrazolo[1,5-a]pyridine-5-sulfonamide] | < 100 nM | < 1000 nM |
| CC1(NS(=O)(=O)c2cc(N3CCC4(CC3)COC4)n3ncc(-c4nnc(C5(F)CC5)s4)c3c2)CC1 [Example 12, 3-(5-(1-fluorocyclopropyl)-1,3,4-thiadiazol-2-yl)-N-(1-methylcyclopropyl)-7-(2-oxa-7-azaspiro[3.5]nonan-7-yl)pyrazolo[1,5-a]pyridine-5-sulfonamide] | < 100 nM | < 1000 nM |
| O=S(=O)(NC1(C(F)(F)F)CC1)c1cc(N2CCC3(CC2)COC3)n2ncc(-c3nnc(C(F)F)s3)c2c1 [Example 13, 3-[5-(difluoromethyl)-1,3,4-thiadiazol-2-yl]-7-(2-oxa-7-azaspiro[3.5]nonan-7-yl)-N-[1-(trifluoromethyl)cyclopropyl]pyrazolo[1,5-a]pyridine-5-sulfonamide] | 100 to 500 nM | 1000 to 5000 nM |
| CC1(NS(=O)(=O)c2cc(N3CCC4(CC3)COC4)n3ncc(-c4nc(C(F)F)ns4)c3c2)CC1 [Example 25, 3-(3-(difluoromethyl)-1,2,4-thiadiazol-5-yl)-N-(1-methylcyclopropyl)-7-(2-oxa-7-azaspiro[3.5]nonan-7-yl)pyrazolo[1,5-a]pyridine-5-sulfonamide] | < 100 nM | – |
| CC(=O)N1CCN(c2cc(S(=O)(=O)NC3(C)CC3)cc3c2cnn3-c2nnc(C3(O)CCC3)s2)CC1 [Example 29, 4-(4-acetylpiperazin-1-yl)-1-[5-(1-hydroxycyclobutyl)-1,3,4-thiadiazol-2-yl]-N-(1-methylcyclopropyl)indazole-6-sulfonamide] | 100 to 500 nM | – |
| CC(=O)N1CCN(c2cc(S(=O)(=O)NC3(C)CC3)cn3c(-c4nnc(C5(C#N)CC5)s4)cnc23)CC1 [Example 38, 8-(4-acetylpiperazin-1-yl)-3-(5-(1-cyanocyclopropyl)-1,3,4-thiadiazol-2-yl)-N-(1-methylcyclopropyl)imidazo[1,2-a]pyridine-6-sulfonamide] | < 100 nM | – |

Continued, in another order:

| IC50 [1] | SMILES | IC50 (Kuramochi cells) |
| --- | --- | --- |
| < 100 nM | CC1(NS(=O)(=O)c2cc(N3CCC4(CC3)COC4)n3ncc(-c4nnc(C(F)F)s4)c3c2)CC1 [Example 1, 3-(5-(difluoromethyl)-1,3,4-thiadiazol-2-yl)-N-(1-methylcyclopropyl)-7-(2-oxa-7-azaspiro[3.5]nonan-7-yl)pyrazolo[1,5-a]pyridine-5-sulfonamide] | < 1000 nM |
| < 100 nM | N#CC1(NS(=O)(=O)c2cc(N3CCN(C(=O)C4CC4)CC3)n3ncc(-c4nnc(C(F)F)s4)c3c2)CC1 [Example 3, N-(1-cyanocyclopropyl)-7-[4-(cyclopropanecarbonyl)piperazin-1-yl]-3-[5-(difluoromethyl)-1,3,4-thiadiazol-2-yl]pyrazolo[1,5-a]pyridine-5-sulfonamide] | < 1000 nM |
| < 100 nM | CC1(NS(=O)(=O)c2cc(N3CCC4(CC3)COC4)n3ncc(-c4nncs4)c3c2)CC1 [Example 5] | < 1000 nM |
| < 100 nM | Cc1nnc(-c2cnn3c(N4CCC5(CC4)COC5)cc(S(=O)(=O)NC4(C)CC4)cc23)s1 [Example 7, 3-(5-methyl-1,3,4-thiadiazol-2-yl)-N-(1-methylcyclopropyl)-7-(2-oxa-7-azaspiro[3.5]nonan-7-yl)pyrazolo[1,5-a]pyridine-5-sulfonamide] | < 1000 nM |
| 100 to 500 nM | Cc1nnc(-c2cnn3c(N4CCC5(CC4)COC5)cc(S(=O)(=O)NC4(C)CC4)cc23)o1 [Example 9, 3-(5-methyl-1,3,4-oxadiazol-2-yl)-N-(1-methylcyclopropyl)-7-(2-oxa-7-azaspiro[3.5]nonan-7-yl)pyrazolo[1,5-a]pyridine-5-sulfonamide] | < 1000 nM |
| < 100 nM | O=S(=O)(NC1(C(F)F)CC1)c1cc(N2CCC3(CC2)COC3)n2ncc(-c3nnc(C(F)F)s3)c2c1 [Example 10, 3-(5-(difluoromethyl)-1,3,4-thiadiazol-2-yl)-N-(1-(difluoromethyl)cyclopropyl)-7-(2-oxa-7-azaspiro[3.5]nonan-7-yl)pyrazolo[1,5-a]pyridine-5-sulfonamide] | < 1000 nM |
| < 100 nM | N#CC1(NS(=O)(=O)c2cc(C3CCN(C(=O)C4CC4)CC3)n3ncc(-c4nnc(C(F)F)s4)c3c2)CC1 [Example 11, N-(1-cyanocyclopropyl)-7-[1-(cyclopropanecarbonyl)-4-piperidyl]-3-[5-(difluoromethyl)-1,3,4-thiadiazol-2-yl]pyrazolo[1,5-a]pyridine-5-sulfonamide] | < 1000 nM |
| > 500 nM | O=C(N1CCN(c2cc(S(=O)(=O)NC34CC(C3)C4)cc3c2cnn3-c2nnc(C(F)F)s2)CC1)N1CC[C@H](O)C1 [Example 27, N-(1-bicyclo [1.1.1]pentanyl)-1-[5-(difluoromethyl)-1,3,4-thiadiazol-2-yl]-4-[4-[(3S)-3-hydroxypyrrolidine-1-carbonyl]piperazin-1-yl] indazole-6-sulfonamide] | – |
| > 500 nM | CC(=O)N1CCN(c2cc(S(=O)(=O)NC3(C)CC3)cc3c2cnn3-c2nc3c(s2)C(C)(O)COC3)CC1 (centres unmarked) [Example 30, 4-(4-acetylpiperazin-1-yl)-1-(7-hydroxy-7-methyl-6,7-dihydro-4H-pyrano[3,4-d]thiazol-2-yl)-N-(1-methylcyclopropyl)-1H-indazole-6-sulfonamide] | – |
| < 100 nM | N#CC1(NS(=O)(=O)c2cc3c(-c4nnc(C(F)F)s4)ncn3c(N3CCC4(CC3)COC4)c2F)CC1 [Example 41, N-(1-cyanocyclopropyl)-1-(5-(difluoromethyl)-1,3,4-thiadiazol-2-yl)-6-fluoro-5-(2-oxa-7-azaspiro[3.5]nonan-7-yl)imidazo[1,5-a]pyridine-7-sulfonamide] | – |
